Test results reported in patent publication US9056876B2, “Substituted 1H-pyrazolo[3′,4′,4,5]thieno[2,3-b]pyridin-3-amine analogs as positive allosteric modulators of the muscarinic acetylcholine receptor M4” (VANDERBILT UNIVERSITY, priority 2011, dated 2015).

Biological target: T1, mAChR M4 (UniProt P08173)
T1 construct: hM1 and hM4 cDNAs were purchased from Missouri S&T cDNA Resource
T1 sequence (P08173 1-479): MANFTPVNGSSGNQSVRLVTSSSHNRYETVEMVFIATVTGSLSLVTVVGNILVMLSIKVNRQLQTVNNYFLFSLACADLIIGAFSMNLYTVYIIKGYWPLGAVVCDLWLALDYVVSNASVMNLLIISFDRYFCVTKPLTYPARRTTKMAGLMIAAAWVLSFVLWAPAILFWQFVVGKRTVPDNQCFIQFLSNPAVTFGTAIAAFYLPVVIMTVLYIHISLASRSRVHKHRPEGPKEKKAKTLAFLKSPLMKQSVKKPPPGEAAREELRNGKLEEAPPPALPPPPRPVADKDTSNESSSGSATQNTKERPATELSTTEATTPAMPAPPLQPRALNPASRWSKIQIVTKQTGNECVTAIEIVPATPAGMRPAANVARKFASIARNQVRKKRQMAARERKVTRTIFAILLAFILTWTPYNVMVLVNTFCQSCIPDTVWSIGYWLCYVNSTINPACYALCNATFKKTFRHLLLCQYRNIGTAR
Assay: mAChR M4 cell-based functional assay (calcium mobilization, Fluo-4, FDSS)
Details: for Emax (%)*: % ACh maximum at 30 μM; for pEC50: positive allosteric modulator activity, EC20 acetylcholine response; for pEC50 / EC50: CHO-K1 cells; for EC50: positive allosteric modulator activity: concentration-dependent increase in the EC20 acetylcholine response, >10 μM estimated for low potency (no plateau)
Source text: Chinese hamster ovary (CHO-K1) cells stably expressing rat (r)M1 were purchased from the American Type Culture Collection and cultured according to their indicated protocol. CHO cells stably expressing human (h)M2, hM3, and hM5 were described previously (Levey A I, et al., (1991) J Neurosci 11:3218-3226.); hM1 and hM4 cDNAs were purchased from Missouri S&T cDNA Resource; rM4 cDNA was provided by T. I. Bonner (National Institutes of Health, Bethesda, Md.). rM2 and rM3 were cloned from a rat brain cDNA library and sequence verified. hM1, rM2, rM3, hM4, and rM4 cDNAs were used to stably transfect CHO-K1 cells purchased from the American Type Culture Collection using Lipofectamine-2000. To make stable rM2, hM2, rM3, hM4, and rM4 cell lines for use in calcium mobilization assays, these cells also were stably transfected with a chimeric G-protein (Gqi5) (provided by B. R. Conklin, University of California, San Francisco) using Lipofectamine 2000. rM1, hM1, rM3, hM3, rM5, and hM5 cells were grown in Ham's F-12 medium containing 10% heat-inactivated fetal bovine serum (FBS), 20 mM HEPES, and 50 µg/mL G418 sulfate. rM2-Gqi5, hM2-Gqi5, and hM4-Gqi5 cells were grown in the same medium also containing 500 µg/mL Hygromycin B. Stable rM4-Gqi5 cells were grown in DMEM containing 10% heat-inactivated FBS, 20 mM HEPES, 400 µg/mL G418 sulfate, and 500 µg/mL Hygromycin B.
For high throughput measurement of agonist-evoked increases in intracellular calcium, CHO-K1 cells stably expressing the target muscarinic receptor were plated in growth medium lacking G418 and hygromycin at 15,000 cells/20 μL/well in Greiner 384-well black-walled, tissue culture (TC)-treated, clear-bottom plates (VWR). Cells were incubated overnight at 37° C. and 5% CO2. The next day, cells were washed using an ELX 405 (BioTek) with four washes (80 μL) of assay buffer then aspirated to 20 μL. Next, […] of 16 μM Fluo-4/acetoxymethyl ester (Invitrogen, Carlsbad, Calif.) prepared as a 2.3 mM stock in DMSO and mixed in a 1:1 ratio with 10% (w/v) Pluronic F-127 and diluted in assay buffer was added to the wells and the cell plates were incubated for 50 min at 37° C. and 5% CO2. Dye was removed by washing with the ELX 405 (four 80 μL washes of assay buffer) then aspirated to 20 μL. Compound master plates were formatted in an 11 point CRC format (1:3 dilutions) in 100% DMSO with a starting concentration of 10 mM using the BRAVO liquid handler (Agilent). Test compound CRCs were then transferred to daughter plates (240 nL) using the Echo acoustic plate reformatter (Labcyte, Sunnyvale, Calif.) and then diluted into assay buffer (40 μL) to a 2× stock using a Thermo Fisher Combi (Thermo Fisher Scientific, Waltham, Mass.).
Calcium flux was measured using the Functional Drug Screening System (FDSS) 6000 (Hamamatsu Corporation, Tokyo, Japan) as an increase in the fluorescent static ratio. Compounds were applied to cells (20 μL, 2×) using the automated system of the FDSS 6000 at 4 s into the 300 s protocol and the data were collected at 1 Hz. At 144 s into the 300 s protocol, 10 μL of an EC20 concentration of the muscarinic receptor agonist acetylcholine was added (5×), followed by the addition of 12 μL an EC80 concentration of acetylcholine at the 230 s time point (5×). Agonist activity was analyzed as a concentration-dependent increase in calcium mobilization upon compound addition. Positive allosteric modulator activity was analyzed as a concentration-dependent increase in the EC20 acetylcholine response. Antagonist activity was analyzed as a concentration-dependent decrease in the EC80 acetylcholine response. Concentration-response curves were generated using a four-parameter logistical equation in XLfit curve fitting software (IDBS, Bridgewater, N.J.) for Excel (Microsoft, Redmond, Wash.) or Prism (GraphPad Software, Inc., San Diego, Calif.). […]

SMILES	Emax (%)* [%]	pEC50	EC50 [nM]
Cc1cc(C)c2c(n1)sc1c(N)n[nH]c12 [Compound 1, 6,8-dimethyl-1H-pyrazolo[3′,4′:4,5]thieno[2,3-b]pyridin-3-amine]	27	<5.00	> 10000
Cc1cc(C)c2c(n1)sc1c(NC(=O)C3CC3)n[nH]c12 [Compound 2, N-(6,8-dimethyl-1H-pyrazolo[3′,4′:4,5]thieno[2,3-b]pyridin-3-yl)cyclopropanecarboxamide]	36	5.42	3840
Cc1cc(C)c2c(n1)sc1c(NCCC(C)C)n[nH]c12 [Compound 3, N-isopentyl-6,8-dimethyl-1H-pyrazolo[3′,4′:4,5]thieno[2,3-b]pyridin-3-amine]	46	5.91	1240
Cc1cc(C)c2c(n1)sc1c(NCc3ccc(F)cc3)n[nH]c12 [Compound 4, N-(4-fluorobenzyl)-6,8-dimethyl-1H-pyrazolo[3′,4′:4,5]thieno[2,3-b]pyridin-3-amine]	54	5.99	1030
Cc1cc(C)c2c(n1)sc1c(NCc3ccccc3)n[nH]c12 [Compound 5, N-benzyl-6,8-dimethyl-1H-pyrazolo[3′,4′:4,5]thieno[2,3-b]pyridin-3-amine]	58	5.97	1070
COc1ccc(CNc2n[nH]c3c2sc2nc(C)cc(C)c23)cc1 [Compound 6, N-(4-methoxybenzyl)-6,8-dimethyl-1H-pyrazolo[3′,4′:4,5]thieno[2,3-b]pyridin-3-amine]	58	5.94	1150
Cc1cc(C)c2c(n1)sc1c(NCC3CC3)n[nH]c12 [Compound 7, N-(cyclopropylmethyl)-6,8-dimethyl-1H-pyrazolo[3′,4′:4,5]thieno[2,3-b]pyridin-3-amine]	68	5.90	1260
Cc1cc(C)c2c(n1)sc1c(NCC3CC3)nn(C(=O)OC(C)(C)C)c12 [Compound 8, tert-butyl 3-((cyclopropylmethyl)amino)-6,8-dimethyl-1H-pyrazolo[3′,4′:4,5]thieno[2,3-b]pyridine-1-carboxylate]	61	5.62	2410
Cc1cc(C)c2c(n1)sc1c(NCc3ccccc3F)n[nH]c12 [Compound 9, N-(2-fluorobenzyl)-6,8-dimethyl-1H-pyrazolo[3′,4′:4,5]thieno[2,3-b]pyridin-3-amine]	43	5.98	1050
Cc1cc(C)c2c(n1)sc1c(NC3CCCC3)n[nH]c12 [Compound 10, N-cyclopentyl-6,8-dimethyl-1H-pyrazolo[3′,4′:4,5]thieno[2,3-b]pyridin-3-amine]	55	5.76	1740
Cc1cc(C)c2c(n1)sc1c(NC(C)C)n[nH]c12 [Compound 11, N-isopropyl-6,8-dimethyl-1H-pyrazolo[3′,4′:4,5]thieno[2,3-b]pyridin-3-amine]	59	5.62	2410
Cc1cc(C)c2c(n1)sc1c(NC3CCSCC3)n[nH]c12 [Compound 12, 6,8-dimethyl-N-(tetrahydro-2H-thiopyran-4-yl)-1H-pyrazolo[3′,4′:4,5]thieno[2,3-b]pyridin-3-amine]	38	5.36	4390
Cc1cc(C)c2c(n1)sc1c(NC3CCOCC3)n[nH]c12 [Compound 13, 6,8-dimethyl-N-(tetrahydro-2H-pyran-4-yl)-1H-pyrazolo[3′,4′:4,5]thieno[2,3-b]pyridin-3-amine]	37	5.14	7320
Cc1nc2sc3c(NCC4CC4)n[nH]c3c2c(C)c1Cl [Compound 14, 7-chloro-N-(cyclopropylmethyl)-6,8-dimethyl-1H-pyrazolo[3′,4′:4,5]thieno[2,3-b]pyridin-3-amine]	69	5.80	1600
CCNc1n[nH]c2c1sc1nc(C)cc(C)c12 [Compound 15, N-ethyl-6,8-dimethyl-1H-pyrazolo[3′,4′:4,5]thieno[2,3-b]pyridin-3-amine]	65	5.68	2100
Cc1nc2sc3c(NCc4ccccc4)n[nH]c3c2c(C)c1Cl [Compound 16, N-benzyl-7-chloro-6,8-dimethyl-1H-pyrazolo[3′,4′:4,5]thieno[2,3-b]pyridin-3-amine]	32	<5.00	> 10000
Cc1nc2sc3c(NCc4ccccc4)nn(C)c3c2c(C)c1Cl [Compound 17, N-benzyl-7-chloro-1,6,8-trimethyl-1H-pyrazolo[3′,4′:4,5]thieno[2,3-b]pyridin-3-amine]	39	<5.00	> 10000
COc1ccc(CNc2nn(C)c3c2sc2nc(C)c(Cl)c(C)c23)cc1 [Compound 18, 7-chloro-N-(4-methoxybenzyl)-1,6,8-trimethyl-1H-pyrazolo[3′,4′:4,5]thieno[2,3-b]pyridin-3-amine]	51	<5.00	> 10000
Cc1nc2sc3c(NCC4CC4)nn(C)c3c2c(C)c1Cl [Compound 19, 7-chloro-N-(cyclopropylmethyl)-1,6,8-trimethyl-1H-pyrazolo[3′,4′:4,5]thieno[2,3-b]pyridin-3-amine]	65	6.59	260
Cc1nc2sc3c(NCc4ccco4)n[nH]c3c2c(C)c1Cl [Compound 20, 7-chloro-N-(furan-2-ylmethyl)-6,8-dimethyl-1H-pyrazolo[3′,4′:4,5]thieno[2,3-b]pyridin-3-amine]	48	5.85	1400
Cc1nc2sc3c(NCc4cccs4)n[nH]c3c2c(C)c1Cl [Compound 21, 7-chloro-6,8-dimethyl-N-(thiophen-2-ylmethyl)-1H-pyrazolo[3′,4′:4,5]thieno[2,3-b]pyridin-3-amine]	39	<5.00	> 10000
Cc1nc2sc3c(NCc4ccc(F)cc4)nn(C)c3c2c(C)c1Cl [Compound 22, 7-chloro-N-(4-fluorobenzyl)-1,6,8-trimethyl-1H-pyrazolo[3′,4′:4,5]thieno[2,3-b]pyridin-3-amine]	57	<5.00	> 10000
